Experimental data published in ChEMBL document CHEMBL1201862, “PubChem BioAssay data set” (2004).
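Compound exposure: 48 hours, 5 concentrations, 96-well plates. GI50 is the concentration that inhibits growth by half.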 Calls of active or inactive are those of the source. Cut-off read from the data, not from the text of the source: active = GI50 up to about 1.1 µM and inactive = higher.

Tests used:
Assay in all cases: NCI anticancer screen, dose series, 48 h
CAKI-1 = test system: CAKI-1
CCRF-CEM = test system: CCRF-CEM
SK-OV-3 = test system: SK-OV-3
786-0 = test system: 786-0
NCI-H522 = test system: NCI-H522
NCI-H460 = test system: NCI-H460
U-251 = test system: U-251
Malme-3M = test system: Malme-3M
SK-MEL-5 = test system: SK-MEL-5
HCT-116 = test system: HCT-116
HCT-15 = test system: HCT-15
SNB-19 = test system: SNB-19
ACHN = test system: ACHN
SR = test system: SR
SF-539 = test system: SF-539
OVCAR-8 = test system: OVCAR-8
SN12C = test system: SN12C
LOX IMVI = test system: LOX IMVI
NCI-H226 = test system: NCI-H226
NCI-H23 = test system: NCI-H23

| Compound | GI50 (CAKI-1) | GI50 (CCRF-CEM) | GI50 (SK-OV-3) | GI50 (786-0) | GI50 (NCI-H522) | GI50 (NCI-H460) | GI50 (U-251) | GI50 (Malme-3M) | GI50 (SK-MEL-5) | GI50 (HCT-116) | GI50 (HCT-15) [µM] | GI50 (SNB-19) | GI50 (ACHN) | GI50 (SR) | GI50 (SF-539) | GI50 (OVCAR-8) | GI50 (SN12C) | GI50 (LOX IMVI) | GI50 (NCI-H226) | GI50 (NCI-H23) |
| --- | --- | --- | --- | --- | --- | --- | --- | --- | --- | --- | --- | --- | --- | --- | --- | --- | --- | --- | --- | --- |
| CC(C)(C)c1cc(OCc2nn3c(Cc4ccccc4)nnc3s2)c(Cl)cc1OCc1nn2c(Cc3ccccc3)nnc2s1 | 23.6 µM (inactive) | 6.67 µM (inactive) | > 100 µM (inactive) | 30 µM (inactive) | 23.5 µM (inactive) | 28.2 µM (inactive) | 21.8 µM (inactive) | 12 µM (inactive) | 8.65 µM (inactive) | 16.6 µM (inactive) | 19.6 | 80.9 µM (inactive) | 14.4 µM (inactive) | 39.9 µM (inactive) | 55.5 µM (inactive) | 25.3 µM (inactive) | 34.8 µM (inactive) | 37.1 µM (inactive) | > 100 µM (inactive) | 39.1 µM (inactive) |
| O=C(Nc1cc2c(=O)[nH]c3ccccc3c2oc1=O)c1cnccn1 | > 100 µM (inactive) | > 100 µM (inactive) | > 100 µM (inactive) | > 100 µM (inactive) | > 100 µM (inactive) | > 100 µM (inactive) | > 100 µM (inactive) | > 100 µM (inactive) | > 100 µM (inactive) | > 100 µM (inactive) | > 100 | > 100 µM (inactive) | > 100 µM (inactive) | > 100 µM (inactive) | > 100 µM (inactive) | > 100 µM (inactive) | > 100 µM (inactive) | > 100 µM (inactive) | > 100 µM (inactive) | > 100 µM (inactive) |
| Nc1nc(Cl)cc(NCC2(CO)CC(OCc3ccccc3)C2)n1 (stereo not given) | > 100 µM (inactive) | > 100 µM (inactive) | > 100 µM (inactive) | > 100 µM (inactive) | 93.1 µM (inactive) | 78.7 µM (inactive) | 90.4 µM (inactive) | > 100 µM (inactive) | 7 µM (inactive) | 40.5 µM (inactive) | 65.6 | 41.9 µM (inactive) | > 100 µM (inactive) | 25.1 µM (inactive) | > 100 µM (inactive) | 71.6 µM (inactive) | > 100 µM (inactive) | 23.2 µM (inactive) | 25.6 µM (inactive) | > 100 µM (inactive) |
| OCC1OC(O[C@H]2CN3[C@H](O)[C@@H](O)[C@H](O)[C@H]3C2O)C(O)C(O)C1O (stereo not given in full) | > 100 µM (inactive) | > 100 µM (inactive) | > 100 µM (inactive) | > 100 µM (inactive) | > 100 µM (inactive) | > 100 µM (inactive) | > 100 µM (inactive) | > 100 µM (inactive) | > 100 µM (inactive) | > 100 µM (inactive) | > 100 | > 100 µM (inactive) | > 100 µM (inactive) | > 100 µM (inactive) | > 100 µM (inactive) | > 100 µM (inactive) | > 100 µM (inactive) | > 100 µM (inactive) | > 100 µM (inactive) | > 100 µM (inactive) |
| CSc1nc(NC2OC(COC(C)=O)C(OC(C)=O)C(OC(C)=O)C2OC(C)=O)c(/N=C\C=N/c2c(NC3OC(COC(C)=O)C(OC(C)=O)C(OC(C)=O)C3OC(C)=O)nc(SC)n(C)c2=O)c(=O)n1C (stereo not given) | > 7.23 µM (inactive) | > 100 µM (inactive) | 36.1 µM (inactive) | 34 µM (inactive) | > 100 µM (inactive) | > 100 µM (inactive) | 41.2 µM (inactive) | 81.5 µM (inactive) | > 100 µM (inactive) | > 100 µM (inactive) | > 100 | 38.6 µM (inactive) | 83.9 µM (inactive) | > 100 µM (inactive) | 38 µM (inactive) | 73.8 µM (inactive) | > 92.9 µM (inactive) | > 95.3 µM (inactive) | 54.1 µM (inactive) | > 70 µM (inactive) |
